Tested on: patients with cGVHD
Assay: Example 2: safety, adverse events, relative dose intensity
Assay type: in vivo
Details: for Cough / Diarrhea / Dyspnea / Fatigue / Headache / Muscle spasms / Nausea / Peripheral edema / Upper respiratory tract infection / Vomiting: All grades
Description: All responses were assessed by the study site investigators.

## CC(C)NC(=O)COc1cccc(-c2nc(Nc3ccc4[nH]ncc4c3)c3ccccc3n2)c1 [Belumosudil, 2-{3-[4-(1H-indazol-5-ylamino)-2-quinazolinyl]phenoxy}-N-(propan-2-yl) acetamide]
200 mg daily (n = 66)
  Any AE: 65 (99) n (%)
  Deaths: 8 (12) n (%)
  Drug-related AEs: 49 (74) n (%)
  Drug-related SAEs: 5 (8) n (%)
  Grade ≥ 3 AEs: 37 (56) n (%)
  Liver-related AEs: 12 (18) n (%)
  SAEs: 27 (41) n (%)
  Cough: 20 (30) n (%)
  Diarrhea: 23 (35) n (%)
  Dyspnea: 21 (32) n (%)
  Fatigue: 30 (46) n (%)
  Headache: 13 (20) n (%)
  Muscle spasms: 13 (20) n (%)
  Nausea: 23 (35) n (%)
  Peripheral edema: 17 (26) n (%)
  Upper respiratory tract infection: 17 (26) n (%)
  Vomiting: 18 (27) n (%)
200 mg twice daily (n = 66)
  Any AE: 66 (100) n (%)
  Deaths: 6 (9) n (%)
  Drug-related AEs: 40 (61) n (%)
  Drug-related SAEs: 2 (3) n (%)
  Grade ≥ 3 AEs: 34 (52) n (%)
  Liver-related AEs: 19 (29) n (%)
  SAEs: 23 (35) n (%)
  Cough: 17 (26) n (%)
  Diarrhea: 21 (32) n (%)
  Dyspnea: 12 (18) n (%)
  Fatigue: 20 (30) n (%)
  Headache: 18 (27) n (%)
  Muscle spasms: 13 (20) n (%)
  Nausea: 18 (27) n (%)
  Peripheral edema: 13 (20) n (%)
  Upper respiratory tract infection: 18 (27) n (%)
  Vomiting: 10 (15) n (%)
Total (N = 132)
  Cough: 37 (28) n (%)
  Diarrhea: 44 (33) n (%)
  Dyspnea: 33 (25) n (%)
  Fatigue: 50 (38) n (%)
  Headache: 31 (24) n (%)
  Muscle spasms: 26 (20) n (%)
  Nausea: 41 (31) n (%)
  Peripheral edema: 30 (23) n (%)
  Upper respiratory tract infection: 35 (27) n (%)
  Vomiting: 28 (21) n (%)
Example 2
  SAE pneumonia: 7%
  deaths from multiorgan failure and infection possibly related to belumosudil: 2
  grade 3 or 4 hyperglycemia: 5%
  grade 3 or 4 hypertension: 6%
  grade 3 or 4 pneumonia: 8%
  grade ≥3 anemia: 3%
  grade ≥3 cytopenias: < 4%
  grade ≥3 neutropenia: 2%
  grade ≥3 thrombocytopenia: 2%
  increased GGT (AE): 12%
  median RDI: 99.7%
  subjects who died during the study: Fourteen
  subjects who discontinued because of overall AEs: 21%
  subjects who discontinued because of possible drug-related AEs: 12%

— patent US20260027116A1, “Methods of Treating Chronic Graft-Versus-Host Disease Following Allogeneic Hematopoietic Stem Cell Transplantation” (Kadmon Corporation, LLC, priority 2022, published 2026)
